{
  "source": "patent US8389573B2",
  "about": "“Glycyrrhetinic acid derivatives” (Wellington Laboratories Inc., priority 2006, dated 2013)",
  "system": "AR mRNA",
  "assay": "Real-time PCR of AR mRNA in LNCaP cells",
  "assay_type": "cell-based, human",
  "protocol": "Real-Time PCR: Total RNA was isolated using the RNeasy Protect Mini kit (QIAGEN, Valencia, Calif.) according to the manufacturer's protocol. RNA was eluted with 30 μl of RNasefree water and stored at −80° C. RNA was reverse transcribed using Superscript II reverse transcriptase (Invitrogen) according to the manufacturer's protocol. cDNA was prepared from the LNCaP cell line using a combination of oligodeoxythymidylic acid and dNTP mix (Applied Biosystems, Foster City, Calif.) and Superscript II (Invitrogen). Each PCR was carried out in triplicate in a 25-μl volume using SYBR Green Master mix (Applied Biosystems) for 15 min at 95° C. for initial denaturing, followed by 40 cycles of 95° C. for 30 s and 60° C. for 1 min in the ABI Prism 7700 sequence detection system (Applied Biosystems). The ABI Dissociation Curves software was used after a brief thermal protocol (95° C. 15 s and 60° C. 20 s, followed by a slow ramp to 95° C.) to control for multiple species in each PCR amplification. The comparative CT method was used for relative quantitation of samples. Values for each gene were normalized to expression levels of TATA-binding protein. Primers were purchased from Integrated DNA Technologies (Coralville, Iowa). The sequences of the primers used for reverse transcription-PCR were as follows: AR forward, 5′-GTA CCC TGG CGG CAT GGT-3′ [SEQ ID NO: 1] and AR reverse, 5′-CCCATTTCGCTTTTGACACA-3′ [SEQ ID NO: 2]; PSA forward, 5′-GCATTGAACCAGAGGAGTTCTTG-3′ [SEQ ID NO: 3] and PSA reverse, 5′-TTG CGC ACA CAC GTC ATT G-3′ [SEQ ID NO: 4]; and TATA-binding protein forward, 5′-TGCACAGGAGCCAAGAGTGAA-3′ [SEQ ID NO: 5] and reverse, 5′-CACATCACAGCTCCCCACCA-3′ [SEQ ID NO: 6].",
  "data": [
    {"smiles": "COC(=O)[C@@]1(C)CC[C@]2(C)CC[C@]3(C)C(=CC(=O)[C@@H]4[C@@]5(C)C=C(C#N)C(=O)C(C)(C)[C@@H]5CC[C@]43C)[C@@H]2C1", "note": "[β-CDODA-Me, Methyl 2-cyano-3,11-dioxo-18β-oleana-1,12-dien-30-oate]", "values": [
      {"measurement": "AR mRNA effects in the presence of cycloheximide (10 μg/ml)", "result": "did not modulate"},
      {"measurement": "AR mRNA levels after cotreatment with T007", "result": "did not affect mRNA levels"},
      {"measurement": "AR mRNA levels", "setting": "12 and 18 hr", "result": "decreases AR mRNA levels"}
    ]}
  ]
}
